From US20260293900A1 (priority 2023, published 2026)

Assays:
Phytophthora infestans = type: in vivo, Phytophthora infestans (on tomato leaf disks); details: 200 ppm; tomato leaf disks, preventative, inoculated 1 day after application; assessed 5-7 days after application
Plasmopara viticola = type: in vivo, Plasmopara viticola (on grape vine leaf disks); details: 200 ppm; grape vine leaf disks, preventative, inoculated 1 day after application; assessed 6-8 days after application
Pythium ultimum = experiment: Pythium ultimum/Liquid Culture (Seedling Damping Off); type: cell-based; details: Globisporangium ultimum, read-out: control of Pythium ultimum compared to untreated control (inhibition of growth)

| Structure (SMILES) | control of Phytophthora infestans compared to untreated control (percent disease control) (Phytophthora infestans) | control of Plasmopara viticola compared to untreated control (percent disease control) (Plasmopara viticola) | inhibition at 20 ppm (Pythium ultimum) [%] |
| --- | --- | --- | --- |
| COCN(C(=O)c1ccn2ncc(-c3ccc(NC(=O)OC)nc3)c2c1)c1ccc(F)c(OC)c1 [Compound 1, methyl N-[5-[5-[(4-fluoro-3-methoxy-phenyl)-(methoxymethyl)carbamoyl]pyrazolo[1,5-a]pyridin-3-yl]-2-pyridyl]carbamate] | at least 80% | at least 80% | ≥ 80 |
| COC(=O)Nc1ccc(-c2cnn3ccc(C(=O)N(CC#N)c4ccc(Cl)c(OC)c4)cc23)cn1 [Compound 2, methyl N-[5-[5-[(4-chloro-3-methoxy-phenyl)-(cyanomethyl)carbamoyl]pyrazolo[1,5-a]pyridin-3-yl]-2-pyridyl]carbamate] | at least 80% | – | ≥ 80 |
| COC(=O)Nc1ccc(-c2cnn3ccc(C(=O)N(CC#N)c4ccc(F)c(OC)c4)cc23)cn1 [Compound 3, methyl N-[5-[5-[cyanomethyl-(4-fluoro-3-methoxy-phenyl)carbamoyl]pyrazolo[1,5-a]pyridin-3-yl]-2-pyridyl]carbamate] | at least 80% | at least 80% | – |
| COC(=O)Nc1ccc(-c2cnn3ccc(C(=O)N(C)c4ccc(F)c(OC)c4)cc23)cn1 [Compound 4, methyl N-[5-[5-[(4-fluoro-3-methoxy-phenyl)-methyl-carbamoyl]pyrazolo[1,5-a]pyridin-3-yl]-2-pyridyl]carbamate] | at least 80% | at least 80% | ≥ 80 |
| COC(=O)Nc1ccc(-c2cnn3ccc(C(=O)N(C)c4ccc(Cl)cc4)cc23)cc1 [Compound 5, methyl N-[4-[5-[(4-chlorophenyl)-methyl-carbamoyl]pyrazolo[1,5-a]pyridin-3-yl]phenyl]carbamate] | – | – | ≥ 80 |
| CC(=O)Nc1ccc(-c2cnn3ccc(C(=O)N(C)c4ccc(Cl)cc4)cc23)cc1 [Compound 6, 3-(4-acetamidophenyl)-N-(4-chlorophenyl)-N-methyl-pyrazolo[1,5-a]pyridine-5-carboxamide] | – | – | ≥ 80 |
